Test results as given in patent US11053204B2, “Pyrimidinyloxy benzene derivatives as herbicides” (FMC Corporation, priority 2015, dated 2021).

Assays:
Experiment in all cases: Test C postemergence, plant response rating
Type in all cases: in vivo
[1] = system: blackgrass (Alopecurus myosuroides); conditions: Alopecurus myosuroides, post-emergence
Summary of the method: (§1)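 Pre-emergence: seeds sown in loam soil–sand blend or silt loam and sprayed with test chemicals in a non-phytotoxic solvent mixture with surfactant. Post-emergence: plants 2 to 18 cm (1- to 4-leaf stage) in peat-based potting medium, same formulation. Greenhouse 13 to 15 d; visual rating 0 (no effect) to 100 (complete control) versus controls.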

[2] = system: chickweed (common chickweed, Stellaria media); conditions: Stellaria media, post-emergence
Summary of the method: as §1

[3] = system: corn (Zea mays); conditions: Zea mays, post-emergence
Summary of the method: as §1

[4] = system: foxtail, giant (giant foxtail, Setaria faberii); conditions: Setaria faberi, post-emergence
Summary of the method: as §1

[5] = system: galium (catchweed bedstraw, Galium aparine); conditions: Galium, post-emergence
Summary of the method: as §1

[6] = system: kochia (Kochia scoparia); conditions: Bassia scoparia, post-emergence
Summary of the method: as §1

[7] = system: lambsquarters (Chenopodium album); conditions: Chenopodium album, post-emergence
Summary of the method: as §1

[8] = system: morningglory (Ipomoea coccinea); conditions: Ipomoea, post-emergence
Summary of the method: as §1

[9] = system: nutsedge, yellow (yellow nutsedge, Cyperus esculentus); conditions: Cyperus, post-emergence
Summary of the method: as §1

[10] = system: oat, wild (wild oat Avena fatua); conditions: Avena fatua, post-emergence
Summary of the method: as §1

[11] = system: oilseed rape (Brassica napus); conditions: Brassica napus, post-emergence
Summary of the method: as §1

[12] = system: ragweed (common ragweed, Ambrosia elatior); conditions: Ambrosia artemisiifolia, post-emergence
Summary of the method: as §1

[13] = system: soybean (Glycine max); conditions: Glycine max, post-emergence
Summary of the method: as §1

[14] = system: velvetleaf (Abutilon theophrasti); conditions: Abutilon theophrasti, post-emergence
Summary of the method: as §1

[15] = system: wheat (winter wheat, Triticum aestivum); conditions: Triticum aestivum, post-emergence
Summary of the method: as §1

[16] = 62 g ai/ha, scale 0 to 100 (0 no effect, 100 complete control)
[17] = 125 g ai/ha, scale 0 to 100 (0 no effect, 100 complete control)

O=C(OCCC(F)(F)F)c1c(Cl)cccc1Oc1ncc(Cl)cn1 [Compound 15, 3,3,3-trifluoropropyl 2-chloro-6-[(5-chloro-2-pyrimidinyl)oxy]benzoate]
pest or weed control at 16 g/ha ([1]; 16 g ai/ha, scale 0 to 100): 0%
pest or weed control at 31 g/ha ([1]; 31 g ai/ha, scale 0 to 100): 5%
pest or weed control at 62 g/ha [1, 16]: 10%
pest or weed control at 125 g/ha [1, 17]: 10%
pest or weed control at 16 g/ha ([2]; 16 g ai/ha, scale 0 to 100): 35%
pest or weed control at 31 g/ha ([2]; 31 g ai/ha, scale 0 to 100): 80%
pest or weed control at 62 g/ha [2, 16]: 90%
pest or weed control at 125 g/ha [2, 17]: 90%
Corn plant response rating (crop injury, 0 = no effect, 100 = complete kill) at 16 g/ha ([3]; 16 g ai/ha, scale 0 to 100): 15%
Corn plant response rating (crop injury, 0 = no effect, 100 = complete kill) at 31 g/ha ([3]; 31 g ai/ha, scale 0 to 100): 10%
plant injury at 62 g/ha [3, 16]: 20%
plant injury at 125 g/ha [3, 17]: 20%
pest or weed control at 16 g/ha ([4]; 16 g ai/ha, scale 0 to 100): 25%
pest or weed control at 31 g/ha ([4]; 31 g ai/ha, scale 0 to 100): 30%
pest or weed control at 62 g/ha [4, 16]: 20%
pest or weed control at 125 g/ha [4, 17]: 35%
pest or weed control at 16 g/ha ([5]; 16 g ai/ha, scale 0 to 100): 70%
pest or weed control at 31 g/ha ([5]; 31 g ai/ha, scale 0 to 100): 60%
pest or weed control at 62 g/ha [5, 16]: 95%
pest or weed control at 125 g/ha [5, 17]: 95%
pest or weed control at 16 g/ha ([6]; 16 g ai/ha, scale 0 to 100): 90%
pest or weed control at 31 g/ha ([6]; 31 g ai/ha, scale 0 to 100): 95%
pest or weed control at 62 g/ha [6, 16]: 95%
pest or weed control at 125 g/ha [6, 17]: 95%
pest or weed control at 16 g/ha ([7]; 16 g ai/ha, scale 0 to 100): 70%
pest or weed control at 31 g/ha ([7]; 31 g ai/ha, scale 0 to 100): 75%
pest or weed control at 62 g/ha [7, 16]: 75%
pest or weed control at 125 g/ha [7, 17]: 95%
pest or weed control at 16 g/ha ([8]; 16 g ai/ha, scale 0 to 100): 65%
pest or weed control at 31 g/ha ([8]; 31 g ai/ha, scale 0 to 100): 75%
pest or weed control at 62 g/ha [8, 16]: 85%
pest or weed control at 125 g/ha [8, 17]: 90%
pest or weed control at 16 g/ha ([9]; 16 g ai/ha, scale 0 to 100): 0%
pest or weed control at 31 g/ha ([9]; 31 g ai/ha, scale 0 to 100): 0%
pest or weed control at 62 g/ha [9, 16]: 5%
pest or weed control at 125 g/ha [9, 17]: 20%
pest or weed control at 16 g/ha ([10]; 16 g ai/ha, scale 0 to 100): 5%
pest or weed control at 31 g/ha ([10]; 31 g ai/ha, scale 0 to 100): 5%
pest or weed control at 62 g/ha [10, 16]: 5%
pest or weed control at 125 g/ha [10, 17]: 10%
plant injury at 16 g/ha ([11]; 16 g ai/ha, scale 0 to 100): 45%
plant injury at 31 g/ha ([11]; 31 g ai/ha, scale 0 to 100): 95%
plant injury at 62 g/ha [11, 16]: 100%
plant injury at 125 g/ha [11, 17]: 0%
pest or weed control at 16 g/ha ([12]; 16 g ai/ha, scale 0 to 100): 30%
pest or weed control at 31 g/ha ([12]; 31 g ai/ha, scale 0 to 100): 40%
pest or weed control at 62 g/ha [12, 16]: 50%
pest or weed control at 125 g/ha [12, 17]: 65%
plant injury at 16 g/ha ([13]; 16 g ai/ha, scale 0 to 100): 45%
plant injury at 31 g/ha ([13]; 31 g ai/ha, scale 0 to 100): 45%
plant injury at 62 g/ha [13, 16]: 80%
plant injury at 125 g/ha [13, 17]: 90%
pest or weed control at 16 g/ha ([14]; 16 g ai/ha, scale 0 to 100): 50%
pest or weed control at 31 g/ha ([14]; 31 g ai/ha, scale 0 to 100): 50%
pest or weed control at 62 g/ha ([14]; 62 g ai/ha, scale 0 to 100 (0 no effect, 100 complete control), read-out: Velvetleaf plant response rating): 60%
pest or weed control at 125 g/ha [14, 17]: 85%
plant injury at 16 g/ha ([15]; 16 g ai/ha, scale 0 to 100): 0%
plant injury at 31 g/ha ([15]; 31 g ai/ha, scale 0 to 100): 0%
plant injury at 62 g/ha ([15]; 62 g ai/ha, scale 0 to 100 (0 no effect, 100 complete control), read-out: Wheat plant response rating): 0%
plant injury at 125 g/ha [15, 17]: 0%
